The source of these data is patent publication US9127003B2, “2-(azaindol-2-yl)benzimidazoles as PAD4 inhibitors” (Glaxo Group Limited, priority 2012, dated 2015).

Experiment [1] deals with T1, Recombinant human PAD4 (residues 1-663) (Homo sapiens, UniProt Q9UM07).
T1 construct: Recombinant human PAD4 (residues 1-663); GST (N, cleaved yes); made in house; host or cells: E. coli
As to the kind of experiment: PAD4 enzyme assay (NH3 release, BAEE substrate, fluorescence). It counts as biochemical. The conditions noted are these: PAD4 enzyme assay above (Conditions A or B) or similar assays; read-out: mean pIC50 (converted). The method, then:
Recombinant human PAD4 (residues 1-663) was expressed in E. coli as an N-terminal GST-tagged fusion protein. During purification of the protein, the GST tag was removed by cleavage with PreScission Protease (GE Healthcare). Activity of the final product was determined using a FLINT NH3 release assay.
(§1) 8 μl of PAD4 enzyme diluted to an assay concentration of 75 nm in assay buffer (a).: (100 mM HEPES, 50 mM NaCl, 2 mM DTT and 0.6 mg/mIBSA pH 8), or in assay buffer (b).: (100 mM HEPES, 50 mM NaCl, 2 mM DTT, 7.5% glycerol and 1.5 mM CHAPS pH 8), and added to wells containing 0.1 μl of various concentrations of compound or DMSO vehicle (0.8% final) in a Greiner high volume 384 well black plate. Following 30 mins pre-incubation at room temperature, the reaction was initiated by the addition of 4 μl of substrate buffer containing 3 mM N-a-benzoyl-L-arginine ethyl ester (BAEE), 100 mM HEPES, 50 mM NaCl, 600 uM CaCl2 (2H2O) and 2 mM DTT, pH 8.0. The reaction was stopped after 100 mins with the addition of 38 μl stop/detection buffer containing 50 mM EDTA, 2.6 mM phthalaldehyde and 2.6 mM DTT. Assay incubated at room temperature for 90 mins before measuring fluorescent signal (λex 413/λem 476) on an Envision plate reader (Perkin Elmer Life Sciences, Waltham, Mass., USA)
as §1, with “of 30 nM” for “of 75 nm”, “buffer” for “buffer (a).:”, “mg/mIBSA” for “mg/mIBSA pH 8), or in assay buffer (b).: (100 mM HEPES, 50 mM NaCl, 2 mM DTT, 7.5% glycerol and 1.5 mM CHAPS”, “after 60” for “after 100”, “(λex 405/λem 460)” for “(λex 413/λem 476)”

Experiment [2] has as its target T2, Recombinant human PAD2 (residues 1-665) (Homo sapiens, UniProt Q9Y2J8).
T2 construct: Recombinant human PAD2 (residues 1-665); 6His-FLAG (N); made in house; host or cells: baculovirus-infected Sf9 insect cells
As to the kind of experiment: PAD2 enzyme assay (NH3 release, BAEE substrate, fluorescence). In kind it is biochemical. To be noted: PAD2 enzyme assay above or similar assays; read-out: mean pIC50 (converted). How it is done: Recombinant human PAD2 (residues 1-665) was expressed in baculovirus-infected Sf9 insect cells as an N-terminal 6His-FLAG-tagged fusion protein. Activity of the final product was determined using a FLINT NH3 release assay.
8 μl of PAD2 enzyme diluted to an assay concentration of 30 nM in assay buffer (100 mM HEPES, 50 mM NaCl, 2 mM DTT, 7.5% glycerol and 1.5 mM CHAPS pH 8), and added to wells containing 0.1 μl of various concentrations of compound or DMSO vehicle (0.8% final) in a Greiner high volume 384 well black plate. Following 30 mins pre-incubation at room temperature, the reaction was initiated by the addition of 4 μl of substrate buffer containing 180 uM N-a-benzoyl-L-arginine ethyl ester (BAEE), 100 mM HEPES, 50 mM NaCl, 240 uM CaCl2 (2H2O) and 2 mM DTT, pH 8.0. The reaction was stopped after 90 mins with the addition of 38 μl stop/detection buffer containing 50 mM EDTA, 2.6 mM phthalaldehyde and 2.6 mM DTT. Assay incubated at room temperature for 90 mins before measuring fluorescent signal (λex 405/λem 460) on an Envision plate reader (Perkin Elmer Life Sciences, Waltham, Mass., USA)

Values joined by “and” are separate entries in the source; they are usually repeats but may differ in a detail not shown here. Identical values can stand only once. Counter-ions that a name gives are not always drawn.

T1 sequence (Q9UM07 whole entry, the tested form may be a part): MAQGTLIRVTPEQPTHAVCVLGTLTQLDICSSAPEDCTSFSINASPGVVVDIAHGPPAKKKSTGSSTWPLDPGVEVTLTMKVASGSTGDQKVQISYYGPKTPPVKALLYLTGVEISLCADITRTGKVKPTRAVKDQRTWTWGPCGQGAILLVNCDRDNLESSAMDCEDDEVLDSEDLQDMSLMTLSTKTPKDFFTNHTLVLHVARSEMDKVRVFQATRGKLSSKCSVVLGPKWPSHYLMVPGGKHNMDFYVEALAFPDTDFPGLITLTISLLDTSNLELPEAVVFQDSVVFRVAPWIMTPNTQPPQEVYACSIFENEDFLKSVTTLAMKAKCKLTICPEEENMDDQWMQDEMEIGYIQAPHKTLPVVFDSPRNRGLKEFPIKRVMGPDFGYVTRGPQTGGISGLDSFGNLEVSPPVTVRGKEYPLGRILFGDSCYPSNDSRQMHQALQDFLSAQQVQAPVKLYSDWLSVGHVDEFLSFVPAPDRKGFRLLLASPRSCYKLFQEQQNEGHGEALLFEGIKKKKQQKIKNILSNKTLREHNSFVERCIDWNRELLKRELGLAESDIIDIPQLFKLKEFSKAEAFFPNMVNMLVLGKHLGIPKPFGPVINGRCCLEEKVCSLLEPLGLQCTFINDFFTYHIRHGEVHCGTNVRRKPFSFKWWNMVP
T2 sequence (Q9Y2J8 whole entry, the tested form may be a part): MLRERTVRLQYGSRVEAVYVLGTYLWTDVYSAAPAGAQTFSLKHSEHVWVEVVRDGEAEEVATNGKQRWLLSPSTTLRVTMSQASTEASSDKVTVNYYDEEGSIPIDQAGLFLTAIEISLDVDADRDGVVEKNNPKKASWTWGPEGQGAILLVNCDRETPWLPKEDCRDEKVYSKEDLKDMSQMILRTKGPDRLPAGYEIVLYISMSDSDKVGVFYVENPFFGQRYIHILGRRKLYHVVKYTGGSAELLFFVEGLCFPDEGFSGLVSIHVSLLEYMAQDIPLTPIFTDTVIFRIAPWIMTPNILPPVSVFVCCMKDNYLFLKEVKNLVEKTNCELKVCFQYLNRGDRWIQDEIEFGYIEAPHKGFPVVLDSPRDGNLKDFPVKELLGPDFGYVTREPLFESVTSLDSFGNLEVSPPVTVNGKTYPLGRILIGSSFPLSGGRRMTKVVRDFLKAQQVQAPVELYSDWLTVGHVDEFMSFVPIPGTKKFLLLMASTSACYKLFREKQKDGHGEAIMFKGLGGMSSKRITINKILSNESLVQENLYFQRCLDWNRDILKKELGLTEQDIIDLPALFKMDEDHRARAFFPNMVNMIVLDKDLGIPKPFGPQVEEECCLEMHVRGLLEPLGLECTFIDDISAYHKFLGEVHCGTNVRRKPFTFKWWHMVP

On to `CCC(C)Cn1c(-c2nc3cc(C(=O)N4CCC[C@@H](N)C4)cc(OC)c3n2C)cc2cccnc21` (stereo partly drawn) [Example 17, ((R)-3-Aminopiperidin-1-yl)(7-methoxy-1-methyl-2-(1-(2-methylbutyl)-1H-pyrrolo[2,3-b]pyridin-2-yl)-1H-benzo[d]imidazol-5-yl)methanone], for which the IC50 in experiment [1] is 0.0316 to 10 µM.

As for `COc1cc(C(=O)N2C[C@@H](N)CC[C@H]2C)cc2nc(-c3cc4cccnc4n3CC3CC3)n(C)c12` (single isomer, unassigned) [Example 23, ((cis)-5-Amino-2-methylpiperidin-1-yl)(2-(1-(cyclopropylmethyl)-1H-pyrrolo[2,3-b]pyridin-2-yl)-7-methoxy-1-methyl-1H-benzo[d]imidazol-5-yl)methanone, hydrochloride], in experiment [1], the IC50 is 0.0316 to 10 µM. For the compound `COc1cc(C(=O)N2CCC[C@@H](N)C2)cc2nc(-c3cc4cccnc4n3CC(C)(C)C)n(C)c12` [Example 16, (R)-(3-Aminopiperidin-1-yl)(7-methoxy-1-methyl-2-(1-neopentyl-1H-pyrrolo[2,3-b]pyridin-2-yl)-1H-benzo[d]imidazol-5-yl)methanone], the IC50 in experiment [1] is 0.0316 to 10 µM; in experiment [2] it was 63.1 to 79.4 µM.

With `CCn1c(-c2nc3cc(C(=O)N4CCC[C@@H](N)C4)ccc3n2C)cc2cc(OC)ncc21` [Example 7, (R)-(3-Aminopiperidin-1-yl)(2-(1-ethyl-5-methoxy-1H-pyrrolo[2,3-c]pyridin-2-yl)-1-methyl-1H-benzo[d]imidazol-5-yl)methanone], the IC50 in experiment [1] is 0.0316 to 10 µM.

As for `CCn1c(-c2nc3cc(C(=O)N4CCC[C@@H](N)C4)ccc3n2C)cc2cccnc21` [Example 2A, (R)-(3-Aminopiperidin-1-yl)(2-(1-ethyl-1H-pyrrolo[2,3-b]pyridin-2-yl)-1-methyl-1H-benzo[d]imidazol-5-yl)methanone], the IC50 in experiment [1] was 0.0316 to 10 µM.

Regarding `Cn1c(-c2cc3cccnc3n2CC(F)(F)F)nc2cc(C(=O)N3CCC[C@@H](N)C3)ccc21` [Example 4A, (R)-(3-Aminopiperidin-1-yl)(1-methyl-2-(1-(2,2,2-trifluoroethyl)-1H-pyrrolo[2,3-b]-pyridin-2-yl)-1H-benzo[d]imidazol-5-yl)methanone], the IC50 in experiment [1] is 0.0316 to 10 µM. Take `CCn1c(-c2nc3cc(C(=O)N4CCC[C@@H](N)C4)ccc3n2C)cc2ccncc21` [Example 3, (R)-(3-Aminopiperidin-1-yl)(2-(1-ethyl-1H-pyrrolo[2,3-c]pyridin-2-yl)-1-methyl-1H-benzo[d]imidazol-5-yl)methanone]: the IC50 in experiment [1] was 0.0316 to 10 µM. Regarding `CCn1c(-c2nc3cc(C(=O)N4CCC[C@@H](N)C4)cc(OC(F)(F)F)c3n2C)cc2cccnc21` [Example 15, (R)-(3-Aminopiperidin-1-yl)(2-(1-ethyl-1H-pyrrolo[2,3-b]pyridin-2-yl)-1-methyl-7-(trifluoromethoxy)-1H-benzo[d]imidazol-5-yl)methanone], the IC50 in experiment [1] is 0.0316 to 10 µM. With `COc1cc(C(=O)N2CCC[C@@H](N)C2)cc2nc(-c3cc4cccnc4n3CC(F)(F)F)n(C)c12` [Example 11A, (R)-(3-Aminopiperidin-1-yl)(7-methoxy-1-methyl-2-(1-(2,2,2-trifluoroethyl)-1H-pyrrolo[2,3-b]pyridin-2-yl)-1H-benzo[d]imidazol-5-yl)methanone], the IC50 in experiment [1] is 0.0316 to 10 µM. Take `CCn1c(-c2nc3cc(C(=O)N4CCC[C@@H](N)C4)ccc3n2C)cc2cc(O)cnc21` [Example 8, 2-(5-{[(3R)-3-Amino-1-piperidinyl]carbonyl}-1-methyl-1H-benzimidazol-2-yl)-1-ethyl-1H-pyrrolo[2,3-b]pyridin-5-ol]: in experiment [1], the IC50 is 0.0316 to 10 µM. Still for that read-out and setting: to `CCn1c(-c2nc3cc(C(=O)N4CCC[C@@H](N)C4)cc(OC)c3n2CC(C)C)cc2cccnc21` [Example 20, (R)-(3-Aminopiperidin-1-yl)(2-(1-ethyl-1H-pyrrolo[2,3-b]pyridin-2-yl)-1-isobutyl-7-methoxy-1H-benzo[d]imidazol-5-yl)methanone, hydrochloride] belongs 0.0316 to 10 µM; to `CCn1c(-c2nc3cc(C(=O)N4CCCC(N)C4)ccc3n2C)cc2cnccc21` (stereo not drawn) [Example 1, 1-{[2-(1-Ethyl-1H-pyrrolo[3,2-c]pyridin-2-yl)-1-methyl-1H-benzimidazol-5-yl]carbonyl}-3-piperidinamine], 0.0316 to 10 µM.

With `COc1cc(C(=O)N2CCC[C@@H](N)C2)cc2nc(-c3cc4cccnc4n3CC(C)(C)OC)n(C)c12` [Example 21, (R)-(3-Aminopiperidin-1-yl)(7-methoxy-2-(1-(2-methoxy-2-methylpropyl)-1H-pyrrolo[2,3-b]pyridin-2-yl)-1-methyl-1H-benzo[d]imidazol-5-yl)methanone], the IC50 in experiment [1] was 0.0316 to 10 µM. Same read-out and setting: to `CCn1c(-c2nc3cc(C(=O)N4CCC[C@@H](N)C4)ccc3n2C)cc2cc(OC)cnc21` [Example 6, (R)-(3-Aminopiperidin-1-yl)(2-(1-ethyl-5-methoxy-1H-pyrrolo[2,3-b]pyridin-2-yl)-1-methyl-1H-benzo[d]imidazol-5-yl)methanone] belongs 0.0316 to 10 µM; to `COc1cc(C(=O)N2C[C@H](N)CC[C@@H]2C)cc2nc(-c3cc4cccnc4n3CC3CC3)n(C)c12` (single isomer, unassigned) [Example 24, ((cis)-5-Amino-2-methylpiperidin-1-yl)(2-(1-(cyclopropylmethyl)-1H-pyrrolo[2,3-b]pyridin-2-yl)-7-methoxy-1-methyl-1H-benzo[d]imidazol-5-yl)methanone, hydrochloride], 0.0316 to 10 µM. The same measure, in the same setting: to `CCn1c(-c2nc3cc(C(=O)N4CCC[C@@H](N)C4)cc(OC)c3n2C)cc2cccnc21` [Example 9A, (R)-(3-Aminopiperidin-1-yl)(2-(1-ethyl-1H-pyrrolo[2,3-b]pyridin-2-yl)-7-methoxy-1-methyl-1H-benzo[d]imidazol-5-yl)methanone] belongs 0.0316 to 10 µM; to `CCn1c(-c2nc3cc(C(=O)N4CCCC(N)C4)ccc3n2C)cc2cccnc21` (stereo not drawn) [Example 12, (3-Aminopiperidin-1-yl)(2-(1-ethyl-1H-pyrrolo[2,3-b]pyridin-2-yl)-1-methyl-1H-benzo[d]imidazol-5-yl)methanone], 0.0316 to 10 µM.

Turning to `CCn1c(-c2nc3cc(C(=O)N4CCC[C@@H](N)C4)ccc3n2C)cc2cccnc21` [Example 2B, (R)-(3-Aminopiperidin-1-yl)(2-(1-ethyl-1H-pyrrolo[2,3-b]pyridin-2-yl)-1-methyl-1H-benzo[d]imidazol-5-ylmethanone hydrochloride], in experiment [2], the IC50 is 63.1 to 79.4 µM. As for `CCn1c(-c2nc3cc(C(=O)N4CCC[C@@H](N)C4)cc(OC)c3n2CCOC)cc2cccnc21` [Example 18, (R)-(3-Aminopiperidin-1-yl)(2-(1-ethyl-1H-pyrrolo[2,34]pyridin-2-yl)-7-methoxy-1-(2-methoxyethyl)-1H-benzo[d]imidazol-5-yl)methanone, hydrochloride], the IC50 in experiment [1] is 0.0316 to 10 µM. In the case of `CCn1c(-c2nc3cc(C(=O)N4CCC[C@@H](N)C4)cc(OC)c3n2C)cc2cccnc21` [Example 9B, (R)-(3-Aminopiperidin-1-yl)(2-(1-ethyl-1H-pyrrolo[2,3-b]pyridin-2-yl)-7-methoxy-1-methyl-1H-benzo[d]imidazol-5-yl)methanone, hydrochloride], the IC50 in experiment [2] is 63.1 to 79.4 µM and > 79.4 µM.
